The source of these data is patent publication US20210395210A1, “INHIBITION OF BACTERIAL CHAPERONIN SYSTEMS” (THE TRUSTEES OF INDIANA UNIVERSITY, priority 2018, published 2021).

Like-named read-outs stand apart in the source and are kept apart here.

One data set addresses T1, E. coli GroEL/ES (Escherichia coli, UniProt P0A6F5).
T1 construct: made in house; host or cells: GroEL in E. coli DH5α; GroES in E. coli BL21 (DE3)
Put plainly: GroEL/ES-mediated dMDH refolding assay. The conditions noted are these: for log(IC50) GroEL/ES-dMDH Refolding: log of IC50 (μM scale), with standard deviation. It is filed as biochemical. As for the experimental part:
Reagent preparation: For these assays, four primary reagent stocks were prepared: 1) GroEUES-dMDH or HSP60/10-dMDH binary complex stock; 2) ATP initiation stock; 3) EDTA quench stock; 4) MDH enzymatic assay stock. Denatured MDH (dMDH) was prepared by 2-fold dilution of MDH (5 mg/ml, soluble pig heart MDH from Roche, product #10127248001) with denaturant buffer (7 M guanidine-HCl, 200 mM Tris, pH 7.4, and 50 mM DTT). MDH was completely denatured by incubating at room temperature for 45 min. The binary complex solutions were prepared by slowly adding the dMDH stock to a stirring stock with GroEL (or HSP60) in folding buffer (50 mM Tris-HCl, pH 7.4, 50 mM KCl, 10 mM MgCl2, and 1 mM DTT), followed by addition of GroES (or HSP10). The binary complex stocks were prepared immediately prior to dispensing into the assay plates and had final protein concentrations of 83.3 nM GroEL (Mr 800 kDa) or HSP60 (Mr 400 kDa), 100 nM GroES or HSP10 (Mr 70 kDa), and 20 nM dMDH in folding buffer. For the ATP initiation stock, ATP solid was diluted into folding buffer to a final concentration of 2.5 mM. Quench solution contained 600 mM EDTA (pH 8.0). The MDH enzymatic assay stock consisted of 20 mM sodium mesoxalate and 2.4 mM NADH in reaction buffer (50 mM Tris-HCl, pH 7.4, 50 mM KCl, and 1 mM DTT).
Assay Protocol: First, 30 μL aliquots of the GroEL/ES-dMDH or HSP60/10-dMDH binary complex stocks were dispensed into clear, 384-well polystyrene plates. […] The chaperonin-mediated refolding cycles were initiated by addition of 20 μL of ATP stock (reagent concentrations during refolding cycle: 50 nM GroEL or HSP60, 60 nM GroES or HSP10, 12 nM dMDH, 1 mM ATP, and compounds of 100 μM to 46 nM, 3-fold dilution series). The refolding reactions were incubated at 37° C. […] Next, the assay was quenched by addition of 10 μL of the EDTA to final concentration of 100 mM. […] A340 nm measurements were recorded at 0.5 minutes (start point) and at successive time points until the amount of NADH consumed reached ˜90% (end point, generally between 20-35 minutes). The differences between the start and end point A340 values were used to calculate the % inhibition of the GroEL/ES or HSP60/10 machinery by the compounds. […] Results presented represent the averages of IC50 values obtained from at least quadriplicate (duplicate of duplicate) replicates.
After generating the compound library, we next employed a series of well-established biochemical assays to evaluate compound inhibitory effects against the GroEUES chaperonin system (See FIG. 6 and FIG. 7). We used E. coli GroEUES as the surrogate chaperonin system for refolding of the reporter enzymes malate dehydrogenase (MDH) and rhodanese (Rho). Briefly, binary complexes are formed between GroEL and denatured MDH or Rho, which are then refolded to their native states upon addition of ATP and the GroES co-chaperonin. Enzymatic activities of refolded native MDH or Rho act as coupled reporters of GroEUES refolding functions since in the presence of chaperonin inhibitors, no functional reporter enzymes are generated.

In another data set the target is T2, native Rho (rhodanese) (Bos taurus, UniProt P00586).
T2 construct: purchased Roche (so in the source) R1756
T2 sequence (P00586 1-297): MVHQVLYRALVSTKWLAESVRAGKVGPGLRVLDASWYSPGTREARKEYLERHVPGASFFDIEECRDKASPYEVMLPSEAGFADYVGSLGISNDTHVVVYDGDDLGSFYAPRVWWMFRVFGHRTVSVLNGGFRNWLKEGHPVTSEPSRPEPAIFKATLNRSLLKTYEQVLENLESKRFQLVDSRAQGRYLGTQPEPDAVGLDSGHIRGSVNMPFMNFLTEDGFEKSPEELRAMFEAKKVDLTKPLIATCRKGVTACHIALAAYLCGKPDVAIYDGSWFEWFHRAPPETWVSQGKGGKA
Put plainly: Counter-screen for inhibition of native rhodanese enzymatic activity. In kind it is biochemical. The conditions noted are these: for log(IC50) Native Rho Reporter: log of IC50 (μM scale), with standard deviation; for IC50: read-out: Biochemical Assay IC50 Native Rho Reporter. The procedure:
Reagent Preparations & Assay Protocol: Reagents were identical to those used in the GroEUES-dRho refolding assay described above; however, the assay protocol differed in the sequence of compound addition to the wells. Compounds were pin-transferred after the 60 minute incubation for the refolding cycle, but prior to the addition of the thiocyanate enzymatic assay stock. Thus, the refolding reactions were allowed to proceed for 60 min at 37° C. in the absence of test compounds, but the enzymatic activity of the refolded rhodanese reporter enzyme was monitored in the presence of test compounds (inhibitor concentration range during the enzymatic reporter reaction is 100 µM to 46 nM-3-fold dilutions). IC50 values for the rhodenase reporter enzyme were determined as described above. Results presented represent the averages of IC50 values obtained from at least quadriplicate (duplicate of duplicate) replicates.
A general note: Counterscreens check selectivity or assay interference.

The nature of another data set: in vitro. As to conditions: human. The procedure:
HEK 293 cells were maintained in MEM medium (Corning Cellgro, 10-009 CV) supplemented with 10% FBS (Sigma, F2242). […] Cells at 80% confluence were harvested and diluted in growth medium, then 45 μL of the THLE-3 cells (1,500 cells/well) or HEK 293 cells (1,500 cells/well) were dispensed per well, and plates were sealed with “Breathe Easy” oxygen permeable membranes (Diversified Biotech) and incubated at 37° C., 5% CO2, for 24 h.

[1] abbreviates: read-out: Biochemical Assay IC50 GroEL/ES-dMDH refolding.

T1 sequence (P0A6F5 2-548): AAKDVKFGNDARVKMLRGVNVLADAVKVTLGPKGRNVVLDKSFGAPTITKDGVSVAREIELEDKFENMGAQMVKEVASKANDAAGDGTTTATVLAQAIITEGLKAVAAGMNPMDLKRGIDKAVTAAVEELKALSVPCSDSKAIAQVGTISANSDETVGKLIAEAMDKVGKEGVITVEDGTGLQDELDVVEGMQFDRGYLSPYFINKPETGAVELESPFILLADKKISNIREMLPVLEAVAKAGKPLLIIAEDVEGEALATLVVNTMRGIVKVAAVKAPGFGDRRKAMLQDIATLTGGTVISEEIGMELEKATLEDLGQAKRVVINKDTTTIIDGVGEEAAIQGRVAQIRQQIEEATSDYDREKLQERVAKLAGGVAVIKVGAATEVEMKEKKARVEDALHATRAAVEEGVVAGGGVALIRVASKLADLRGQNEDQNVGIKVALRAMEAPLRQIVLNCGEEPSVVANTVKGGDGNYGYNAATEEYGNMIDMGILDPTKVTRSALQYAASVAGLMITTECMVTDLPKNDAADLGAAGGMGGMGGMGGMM

Turning to `COc1ccc(Br)cc1C(=O)Nc1ccccc1` [Compound 43, 5-Bromo-2-methoxy-N-phenylbenzamide], at E. coli GroEL/ES, the IC50 was above 100 µM and the “log(IC50) GroEL/ES-dMDH Refolding” value is recorded as above 2. In addition, on native Rho (rhodanese), the “log(IC50) Native Rho Reporter” value is on record as above 2 and the IC50 was above 100 µM. For the same molecule, in the data set “in vitro”, the CC50 at 48 h was above 100 µM.

Turning to `CC1(C)S[C@@H]2[C@H](NC(=O)[C@H](N)c3ccccc3)C(=O)N2[C@H]1C(=O)O` [Ampicillin, ampicillin, reference compound], the “log(IC50) GroEL/ES-dMDH Refolding” value on E. coli GroEL/ES is on record as above 2. Moreover, at E. coli GroEL/ES (setting [1]), the IC50 was above 100 µM. In addition, at native Rho (rhodanese), the “log(IC50) Native Rho Reporter” value was above 2 and the IC50 is above 100 µM. The CC50 at 48 h in “in vitro” (HEK 293 kidney cells) was above 100 µM.

Consider `COc1c(Br)cc(Br)cc1C(=O)Nc1ccc(Sc2nc3ccccc3s2)cc1` [Compound 33, N-(4-(Benzo[d]thiazol-2-ylthio)phenyl)-3,5-dibromo-2-methoxybenzamide], for which the IC50 against E. coli GroEL/ES and at native Rho (rhodanese) was above 100 µM each time. Also, the CC50 at 48 h in the data set “in vitro” was above 100 µM.

Take `O=C(Nc1ccccc1)c1cc(Br)cc(Br)c1O` [Compound 13, 3,5-Dibromo-2-hydroxy-N-phenylbenzamide]: the “log(IC50) GroEL/ES-dMDH Refolding” value on E. coli GroEL/ES is 1.79 ± 0.10. In addition, on E. coli GroEL/ES (setting [1]), the IC50 was 61 µM. Also, on native Rho (rhodanese), the “log(IC50) Native Rho Reporter” value is above 2 and the IC50 was above 100 µM. This molecule showed a CC50 at 48 h in “in vitro” of 33.9 µM.

For the molecule `COc1ccc(Br)cc1C(=O)Nc1ccc(Sc2nc3ccccc3s2)c(Cl)c1` [Compound 31, N-(4-(Benzo[d]thiazol-2-ylthio)-3-chlorophenyl)-5-bromo-2-methoxybenzamide], the IC50 against E. coli GroEL/ES and at native Rho (rhodanese) was above 100 µM throughout. The molecule further registered a CC50 at 48 h in the data set “in vitro” above 100 µM.

As for `COc1ccc(Br)cc1C(=O)Nc1ccc(Sc2nc3ccccc3s2)cc1` [Compound 35, N-(4-(Benzo[d]thiazol-2-ylthio)phenyl)-5-bromo-2-methoxybenzamide], the IC50 against E. coli GroEL/ES and on native Rho (rhodanese) was above 100 µM in each case. In “in vitro”, this molecule gave a CC50 at 48 h above 100 µM.

Turning to `COc1ccccc1C(=O)Nc1ccc(Sc2nc3ccccc3s2)c(Cl)c1` [Compound 32, N-(4-(Benzo[d]thiazol-2-ylthio)-3-chlorophenyl)-2-methoxybenzamide], the IC50 against E. coli GroEL/ES and at native Rho (rhodanese) was above 100 µM throughout. In “in vitro”, the CC50 at 48 h was above 100 µM.

In the case of `O=C(Nc1cccc(Cl)c1)c1cccc(Br)c1` [Compound 24, 3-Bromo-N-(3-chlorophenyl)benzamide], on E. coli GroEL/ES, the IC50 is above 100 µM and the “log(IC50) GroEL/ES-dMDH Refolding” value is on record as above 2. Moreover, at native Rho (rhodanese), the “log(IC50) Native Rho Reporter” value was above 2 and the IC50 was above 100 µM. Besides, the CC50 at 48 h in “in vitro” was 51.3 µM.

As for `O=C(Nc1ccc(Sc2nc3ccccc3s2)c(Cl)c1)c1cccc(Br)c1` [Compound 18, N-(4-(Benzo[d]thiazol-2-ylthio)-3-chlorophenyl)-3-bromobenzamide], the IC50 at E. coli GroEL/ES and at native Rho (rhodanese) was above 100 µM throughout. Moreover, the CC50 at 48 h in the data set “in vitro” was above 100 µM.

As to `COc1c(Br)cc(Br)cc1C(=O)Nc1ccccc1` [Compound 41, 3,5-Dibromo-2-methoxy-N-phenylbenzamide], at E. coli GroEL/ES, the IC50 is above 100 µM and the “log(IC50) GroEL/ES-dMDH Refolding” value was above 2. On native Rho (rhodanese), the “log(IC50) Native Rho Reporter” value is above 2 and the IC50 was above 100 µM. For the same molecule, the CC50 at 48 h in the data set “in vitro” was above 100 µM.

On to `O=C(Nc1ccc(Sc2nc3ccccc3s2)c(Cl)c1)c1cc(Br)cc(Br)c1` [Compound 17, N-(4-(Benzo[d]thiazol-2-ylthio)-3-chlorophenyl)-3,5-dibromobenzamide], for which the IC50 against E. coli GroEL/ES and at native Rho (rhodanese) was above 100 µM in each case. Also, the CC50 at 48 h in “in vitro” was above 100 µM.

In the case of `COc1ccccc1C(=O)Nc1ccccc1` [Compound 44, 2-Methoxy-N-phenylbenzamide], on E. coli GroEL/ES, the IC50 was above 100 µM and the “log(IC50) GroEL/ES-dMDH Refolding” value was above 2. Besides, on native Rho (rhodanese), the “log(IC50) Native Rho Reporter” value is recorded as above 2 and the IC50 is above 100 µM. The molecule further registered a CC50 at 48 h in “in vitro” above 100 µM.

In the case of `O=C(Nc1cccc(Cl)c1)c1ccccc1` [Compound 25, N-(3-Chlorophenyl)benzamide], on E. coli GroEL/ES, the IC50 was above 100 µM and the “log(IC50) GroEL/ES-dMDH Refolding” value was above 2. At native Rho (rhodanese), the “log(IC50) Native Rho Reporter” value is on record as above 2 and the IC50 is above 100 µM. Besides, the CC50 at 48 h in “in vitro” was above 100 µM.
